IC50 data for 18 molecules are collected here from US20220194960A1, “WEE1 INHIBITOR AND PREPARATION AND USE THEREOF” (SHOUYAO HOLDINGS (BEIJING) CO., LTD., priority 2019, published 2022).

The structures appear in SMILES notation.

In general, IC50 refers to the midpoint of a concentration-inhibition curve.

The subject of assay [1] is Human non-small cell lung cancer cells NCI-H1299. Nature of the assay: NCI-H1299 cell proliferation inhibition (CellTiter-Glo). The format is cell-based. The following applies: cultured 3 days, table head NCI-H1975, method NCI-H1299. As to the method:
2. Determination of Cell Proliferation Activity of Compounds:
NCI-H1299 cell proliferation inhibition screening method was established using CellTiter-fib detection reagent from Promega.
Human non-small cell lung cancer cells NCI-H1299 were cultured in 25 cm^2 or 75 cm^2 plastic tissue culture flasks (Corning) filled with DMEM (Gibco) medium supplemented with 10% fetal bovine serum (Hyclone) under 37° C., 95% air, and 5% CO2, and subcultured 2-3 times a week.
Cells were seeded at 1000 cells/well in a 96-well cell culture plate (Corning), 195 μL/well, and cultured under 37° C., 95% air, and 5% CO2. The next day test compound was added: 10 mM compounds (dissolved in DMSO) were subjected to 3-fold gradient dilution in DMSO, 2 μL of diluent from each concentration was added to 48 μL of serum-fret medium, and finally 5 μL of the diluted compound was added to the plate seeded with cells. The final concentration of DMSO in the cell culture was 0.1% and the foul concentration of the test compound was 0.3 nM-10 μM. The cells were cultured at 37° C. for 3 days.

A further assay addresses T1, WEE1 kinase (Homo sapiens, UniProt P30291).
T1 construct: purchased Carna bioscience
Nature of the assay: WEE1 kinase binding assay (LanthaScreen EU). Particulars: WEE1 kinase 20 nM, Kinase Tracer 178 100 nM, 23° C. for 60 min, read-out: WEEI (IC50). As to the method: 1. Assay for WEE1 Kinase Inhibitory Activity (IC50) on Compounds
The WEE1 kinase binding assay was established and optimized with LanthaScreen EU for the determination of the activity of compounds. 10 mM compounds were subjected to ten-fold gradient dilution in 100% DMSO (6 concentrations in total), 5 μL of diluent from each concentration was added to 45 μL of reaction buffer (50 mM HEPES (4-hydroxyethylpiperazine ethanesulfonic acid), pH 7.5, 10 mM MgCl2 (magnesium chloride), 1 mM EGTA (ethylene glycol diethyl ether diamine tetraacetic acid), 0.01% Brij-35 (polyoxyethylene lauryl ether)) for blending. On this basis, 2 μL diluent from each concentration was added to 48 μL of reaction buffer for blending as a 4*compound (final concentrations of 1000, 100, 10, 1, 0.1, 0 nM) for later use. Reaction buffer was used to formulate 4*WEE1 kinase (purchased from Carna bioscience, a final concentration of 20 nM), 4*LanthaScreen EU-anti-GST Antibody (purchased from Invitrogen, PV5594, a fuel concentration of 2 nM), and 4*Kinase Tracer 178 (purchased from Invitrogen, PV5593, a final concentration of 100 nM). 2.5 μL of 4*compound was added to a 384-well plate (OptiPlate-384, purchased from PerkinElmer), followed by adding 2.5 μL of 4*WEE1 kinase, standing for 5 min at room temperature. Then 2.5 μL of 4*LanthaScreen EU-anti-GST Antibody was added followed by 2.5 μL of 4*Kinase Tracer 178. The reaction was started by centrifugation (a total reaction volume of 10 μL). The 384-well plate was wrapped with tin foil paper and placed in an incubator at 23° C. for 60 min. Fluorescence values (excitation at 320 nm, detecting emitted light at 665 nm and 615 nm, and a ratio of the two as enzyme activity) were read on Envision (purchased from PerkinElmer). The enzyme activity of each compound was measured at 6 concentrations, and the IC50 value of the compound was calculated using GraFit6.0 software (Erithacus Software).
The aforementioned “*” refers to multiplying, representing multiples.
For orientation: In TR-FRET formats the signal depends on donor and acceptor labels being close together.

T1 sequence (P30291 whole entry): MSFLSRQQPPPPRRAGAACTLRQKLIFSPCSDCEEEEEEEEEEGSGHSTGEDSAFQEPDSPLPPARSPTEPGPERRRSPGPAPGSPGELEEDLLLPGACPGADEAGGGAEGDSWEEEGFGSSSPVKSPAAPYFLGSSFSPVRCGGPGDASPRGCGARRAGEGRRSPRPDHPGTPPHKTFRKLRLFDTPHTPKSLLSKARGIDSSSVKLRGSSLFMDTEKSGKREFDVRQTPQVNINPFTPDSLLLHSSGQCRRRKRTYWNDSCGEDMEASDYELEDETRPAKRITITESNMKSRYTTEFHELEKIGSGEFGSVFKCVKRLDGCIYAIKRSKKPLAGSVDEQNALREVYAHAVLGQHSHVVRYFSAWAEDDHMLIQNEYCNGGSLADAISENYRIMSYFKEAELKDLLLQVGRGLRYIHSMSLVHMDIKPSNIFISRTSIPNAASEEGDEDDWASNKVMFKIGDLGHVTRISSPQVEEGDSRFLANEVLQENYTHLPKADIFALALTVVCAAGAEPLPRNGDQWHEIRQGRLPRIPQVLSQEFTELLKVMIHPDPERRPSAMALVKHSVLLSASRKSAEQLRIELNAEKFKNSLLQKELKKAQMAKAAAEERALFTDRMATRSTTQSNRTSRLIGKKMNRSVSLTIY

As for `CCCc1c(F)c2cnc(Nc3ccc(N4CCN(C)CC4)cc3)nc2n1-c1cccc(N=S(C)(C)=O)n1` [Example 1, ((6-(5-fluoro-2-((4-(4-methylpiperazin-1-yl)phenyl)amino)-6-propyl-7H-pyrrolo[2,3-d]pyrimidin-7-yl)pyridin-2-yl)imino)dimethyl-λ^6-sulfanone], the concentration for half-maximal inhibition (IC50) in assay [1] (Homo sapiens, 72 h) was 43 nM; on WEE1 kinase, 0.57 nM.
`CCCc1cc2cnc(Nc3ccc(N4CCN(C)CC4)cc3)nc2n1-c1cccc(N=S(C)(C)=O)n1` [Example 4, ((6-(2-((4 (4-methylpiperazin-1-yl)phenyl)amino)-6-propyl-7H-pyrrolo[2,3-d]pyrimidin-7-yl)pyridin-2-yl)imino)dimethyl-λ^6-sulfanone]: the 50% inhibitory concentration (IC50) in assay [1] (Homo sapiens, 72 h) was determined as 33 nM; at WEE1 kinase, 0.76 nM.
On to `CCCc1cc2cnc(Nc3ccc(N4CCN(C)CC4)cc3)nc2n1-c1cccc(N=S(C)(C)=O)n1` [Example 7, ((6-(6-propyl-2-((4-(4-methylpiperazin-yl)phenyl)amino)-7H-pyrrolo[2,3-d]pyrimidin-7-yl)pyridin-2-yl)imino)dimethyl-λ^6-sulfanone], for which the IC50 in assay [1] is 42 nM; at WEE1 kinase, 0.92 nM.
For the molecule `Cc1cc2cnc(Nc3ccc(N4CCN(C)CC4)cc3)nc2n1-c1cccc(N=S(C)(C)=O)n1` [Example 13, ((6-(6-methyl-2 ((4 (4-methylpiperazin-1-yl)phenyl)amino)-7H-pyrrolo[2,3-d]pyrimidin-7-yl)pyridin-2-yl)imino)dimethyl-λ^6-sulfanone], the IC50 stood at 59 nM in assay [1] (Homo sapiens, 72 h) and 0.51 nM at WEE1 kinase.
With `CN1CCN(c2ccc(Nc3ncc4c(F)c(C5CC5)n(-c5cccc(N=S(C)(C)=O)n5)c4n3)cc2)CC1CO` (stereo not shown) [Example 27, ((6-(6-cyclopropyl-5-fluoro-2 ((4-(3-hydroxymethyl-4-methylpiperazin-1-yl)phenyl)amino)-7H-pyrrolo[2,3-d]pyrimidin-7-yl)pyridin-2-yl)imino)dimethyl-λ^6-sulfanone], the IC50 in assay [1] (Homo sapiens, 72 h) amounted to 60 nM; at WEE1 kinase, 0.57 nM.
For the molecule `CN1CCN(c2ccc(Nc3ncc4c(F)c(C5CC5)n(-c5cccc(N=S(C)(C)=O)n5)c4n3)cc2)C(CO)C1` (stereo not shown) [Example 28], the results for the IC50 (in assay [1]; at WEE1 kinase) were 40 nM and 1.3 nM, respectively.
As to `CN(C)CCc1ccc(Nc2ncc3c(F)c(C4CC4)n(-c4ccnc(N=S(C)(C)=O)n4)c3n2)cc1` [Example 32, ((6-(5-fluoro-2-((4-(2-(dimethylamino)ethyl)phenyl)amino)-6-cyclopropyl-7H-pyrrolo[2,3-d]pyrimidin-7-yl)pyrimidin-2-yl)imino)dimethyl-λ^6-sulfanone], the IC50 in assay [1] came out at 31 nM; at WEE1 kinase, 0.69 nM.
As for `CN1CCN(c2ccc(Nc3ncc4cc(C5CC5)n(-c5cccc(N=S(C)(C)=O)n5)c4n3)cc2F)CC1` [Example 40, ((6-(2-(((3-fluoro-4-(4-methylpiperazin-1-yl)phenyl))amino) 6-cyclopropyl-7H-pyrrolo[2,3-d]pyrimidin-7-yl)pyridin-2-yl)imino)dimethyl-λ^6-sulfanone], the half-maximal inhibitory concentration (IC50) turned out to be 42 nM in assay [1] (Homo sapiens, 72 h) and 0.51 nM at WEE1 kinase.
`CN1CCN(C2CCN(c3ccc(Nc4ncc5c(F)c(C6CC6)n(-c6cccc(N=S(C)(C)=O)n6)c5n4)cc3F)CC2)CC1` [Example 47, ((6-(5-fluoro-2-((3-fluoro-4-(4-(4-methylpiperazin-1-yl)piperidin-1-yl)phenyl)amino)-6-cyclopropyl-7H-pyrrolo[2,3-d]pyrimidin-7-yl)pyridin-2-yl)imino)dimethyl-λ^6-sulfanone]: the IC50 in assay [1] (Homo sapiens, 72 h) is 63 nM; on WEE1 kinase, 0.97 nM.
In the case of `CN1CCN(C2CCN(c3ccc(Nc4ncc5cc(C6CC6)n(-c6cccc(N=S(C)(C)=O)n6)c5n4)cc3F)CC2)CC1` [Example 48, ((6-(2-((3-fluoro-4-(4-(4-methylpiperazin-1-yl)piperidin-1-yl)phenyl)amino)-6-cyclopropyl-7H-pyrrolo[2,3-d]pyrimidin-7-yl)pyridin-2-yl)imino)dimethyl-λ^6-sulfanone], the IC50 in assay [1] (Homo sapiens, 72 h) came to 42 nM; at WEE1 kinase it was 0.8 nM.
On to `Cc1cc(Nc2ncc3cc(C4CC4)n(-c4cccc(N=S(C)(C)=O)n4)c3n2)ccc1N1CCC(N2CCN(C)CC2)CC1` [Example 52, ((6-(2-((3-methyl-4-(4-(4-methylpiperazin-1-yl)piperidin-1-yl)phenyl)amino)-6-cyclopropyl-7H-pyrrolo[2,3-d]pyrimidin-7-yl)pyridin-2-yl)imino)dimethyl-λ^6-sulfanone], for which the half-maximal inhibitory concentration (IC50) in assay [1] (Homo sapiens, 72 h) came to 56 nM; on WEE1 kinase, 0.63 nM.
Take `CN1[C@@H]2CC[C@H]1CN(c1ccc(Nc3ncc4cc(C5CC5)n(-c5cccc(N=S(C)(C)=O)n5)c4n3)cc1)C2` [Example 81, ((6-(6-cyclopropyl-2-((4-((1R,5S)-8-methyl-3,8-diazabicyclo[3.2.1]octan-3-yl)phenyl)amino)-7H-pyrrolo[2,3-d]pyrimidin-7-yl)pyridin-2-yl)imino)dimethyl-λ^6-sulfanone]: the IC50 in assay [1] (Homo sapiens, 72 h) was found to be 38 nM; at WEE1 kinase, 0.33 nM.
As to `CN1[C@@H]2CC[C@H]1CN(c1ccc(Nc3ncc4c(F)c(C5CC5)n(-c5cccc(N=S(C)(C)=O)n5)c4n3)cc1)C2` [Example 82, ((6-(6-cyclopropyl-5-fluoro-2-((4-((1R,5S)-8-methyl-3,8-diazabicyclo[3.2.1]octan-3-yl)phenyl)amino)-7H-pyrrolo[2,3-d]pyrimidin-7-yl)pyridin-2-yl)imino)dimethyl-Ab-sulfanone], the IC50 in assay [1] (Homo sapiens, 72 h) was determined as 64 nM; at WEE1 kinase, 0.58 nM.
As to `CN1CC2(CCN(c3ccc(Nc4ncc5cc(C6CC6)n(-c6cccc(N=S(C)(C)=O)n6)c5n4)cc3)CC2)C1` [Example 85, ((6-(6-cyclopropyl-2-((4-(2-methyl-2,7-diazaspiro[3.5]nonan-7-yl)phenyl)amino)-7H-pyrrolo[2,3-d]pyrimidin-7-yl)pyridin-2-yl)imino)dimethyl-λ^6-sulfanone], the IC50 was 79 nM in assay [1] (Homo sapiens, 72 h) and 0.85 nM at WEE1 kinase.
As to `CN1CC2(CCN(c3ccc(Nc4ncc5c(F)c(C6CC6)n(-c6cccc(N=S(C)(C)=O)n6)c5n4)cc3)CC2)C1` [Example 86, ((6-(6-cyclopropyl-5-fluoro-2-((4-(2-methyl-2,7-diazaspiro[3.5]nonan-7-yl)phenyl)amino)-7H-pyrrolo[2,3-d]pyrimidin-7-yl)pyridin-2-yl)imino)dimethyl-λ^6-sulfanone], the half-maximal inhibitory concentration (IC50) in assay [1] (Homo sapiens, 72 h) was 60 nM; at WEE1 kinase, 0.54 nM.
Take `COc1cc(Nc2ncc3cc(C4CC4)n(-c4cccc(N=S(C)(C)=O)n4)c3n2)ccc1N1CCC(N2CCN(C)CC2)CC1` [Example 87, ((6-(6-cyclopropyl-2-((3-methoxy-4-(4-(4-methylpiperazin-1-yl)piperidin-1-yl)phenyl)amino)-7H-pyrrolo[2,3-d]pyrimidin-7-yl)pyridin-2-yl)imino)dimethyl-λ^6-sulfanone]: the IC50 is 90 nM in assay [1] (Homo sapiens, 72 h) and 0.98 nM at WEE1 kinase.
For the molecule `Cc1cc2cnc(Nc3ccc(N4CCN(C)CC4)cc3)nc2n1-c1cccc(C(C)(C)O)n1` [Example 145, 2-(6-(6-methyl-2-((4 (4-methylpiperazin-1-yl)phenyl)amino)-7H-pyrrolo[2,3-d]pyrimidin-7-yl)pyridin-2-yl)propan-2-ol], on WEE1 kinase, the IC50 amounted to 0.6 nM.
In the case of `CCc1cc2cnc(Nc3ccc(N4CCN(C)CC4)cc3)nc2n1-c1cccc(C(C)(C)O)n1` [Example 159, 2-(6-(6-ethyl-2-((4-(4-methylpiperazin-1-yl)phenyl)amino)-7H-pyrrolo[2,3-d]pyrimidin-7-yl)pyridin-2-yl)propan-2-ol], the 50% inhibitory concentration (IC50) at WEE1 kinase turned out to be 0.59 nM.
